Key:
[1] = biological target: T1, EGFR^L858R+T790M+C797S (Homo sapiens, UniProt P00533, C797S/L858R/T790M); assay: EGFR protein degradation test (Western blot) in Ba/F3 cells expressing mutant EGFR L858R+T790M+C797S (LTC); assay type: cell-based; conditions: compounds at 0.1 μM and 1 μM, 24 hours, Western blot with EGFR antibody
T1 construct: expressed in transfected cells; host or cells: Ba/F3
How it was run: (§1)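 EGFR protein level was measured by Western blot on 30 μg lysate, bands quantified by imager. Lysates came from Ba/F3 lines carrying normal, LTC or DTC mutant EGFR, exposed 24 h to compound at 0.1 and 1 μM.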

[2] = Pharmacokinetic evaluation after single oral administration to ICR mice; assay type: in vivo; conditions: for half-life / AUC(0-t): mouse, ICR mice, single oral dose 5 mg/kg, plasma; for AUC(0-t): read-out: AUC0-24
Method: Pharmacokinetic tests for the compounds of the present invention were conducted as below. After a single oral administration of the compound of the present invention to ICR mice, the concentration of the compound over time was followed up and analyzed.
The compound of the present invention was suspended in 10% DMSO/90% (30% HPbCD aqueous solution) and orally administered to mice at a dose of 5 mg/kg. Blood was collected at a fixed time and plasma was separated. Drug analysis was performed using HPLC (XBridge column C18, Waters, mobile phase 0.1% formic acid:acetonitrile (30:70, %/%)) and MS/MS (ESI positive, MRM). Mouse blood plasma and each commercially available standard solution were mixed at a ratio of 9:1 to prepare and calibrate at concentrations of […] 5,000 ng/mL. In addition, the preparation of QC samples was prepared by mixing the mouse blood plasma and the standard solution for QC at a ratio of 9:1, and prepared to be concentrations of 100, 750 and 2,500 ng/mL. 100 μL of the plasma sample was transferred to a centrifugation tube, and 10 μL of the internal standard solution and 300 μL of methanol were added, followed by mixing for about 30 seconds for pretreatment. The tube was centrifuged at 3,000×g (4° C.) for about 5 minutes, and the supernatant was taken and transferred to an LC vial and injected into the instrument. Then, the concentration of the compound in mouse plasma was quantified by applying a previously validated assay. For pharmacokinetic parameters, the program WinNonlin 5.2 (Pharsight, USA) was used. AUC0-t, AUC0-∞, Cmax, Tmax, and t1/2 were calculated by Noncompartment modeling (best fit). The pharmacokinetic parameter results were expressed as the mean (Mean) and standard deviation (SD), and were statistically processed using the SPSS program (Statistical Package for the Social Sciences, 10.0K, USA).

[3] = tested on: EGFR^del19+T790M+C797S; assay: EGFR protein degradation test (Western blot) in Ba/F3 cells expressing mutant EGFR del19+T790M+C797S (DTC); assay type: cell-based; conditions: compounds at 0.1 μM and 1 μM, 24 hours, Western blot with EGFR antibody
How it was run: as §1

[4] = 74, 76, 77, 80, 81 vs 45, 71, 51, 65, 53
[5] = 69, 70, 75, 78, 82 vs compounds 53 and 65

T1 sequence (P00533 25-1210 T790M/C797S/L858R): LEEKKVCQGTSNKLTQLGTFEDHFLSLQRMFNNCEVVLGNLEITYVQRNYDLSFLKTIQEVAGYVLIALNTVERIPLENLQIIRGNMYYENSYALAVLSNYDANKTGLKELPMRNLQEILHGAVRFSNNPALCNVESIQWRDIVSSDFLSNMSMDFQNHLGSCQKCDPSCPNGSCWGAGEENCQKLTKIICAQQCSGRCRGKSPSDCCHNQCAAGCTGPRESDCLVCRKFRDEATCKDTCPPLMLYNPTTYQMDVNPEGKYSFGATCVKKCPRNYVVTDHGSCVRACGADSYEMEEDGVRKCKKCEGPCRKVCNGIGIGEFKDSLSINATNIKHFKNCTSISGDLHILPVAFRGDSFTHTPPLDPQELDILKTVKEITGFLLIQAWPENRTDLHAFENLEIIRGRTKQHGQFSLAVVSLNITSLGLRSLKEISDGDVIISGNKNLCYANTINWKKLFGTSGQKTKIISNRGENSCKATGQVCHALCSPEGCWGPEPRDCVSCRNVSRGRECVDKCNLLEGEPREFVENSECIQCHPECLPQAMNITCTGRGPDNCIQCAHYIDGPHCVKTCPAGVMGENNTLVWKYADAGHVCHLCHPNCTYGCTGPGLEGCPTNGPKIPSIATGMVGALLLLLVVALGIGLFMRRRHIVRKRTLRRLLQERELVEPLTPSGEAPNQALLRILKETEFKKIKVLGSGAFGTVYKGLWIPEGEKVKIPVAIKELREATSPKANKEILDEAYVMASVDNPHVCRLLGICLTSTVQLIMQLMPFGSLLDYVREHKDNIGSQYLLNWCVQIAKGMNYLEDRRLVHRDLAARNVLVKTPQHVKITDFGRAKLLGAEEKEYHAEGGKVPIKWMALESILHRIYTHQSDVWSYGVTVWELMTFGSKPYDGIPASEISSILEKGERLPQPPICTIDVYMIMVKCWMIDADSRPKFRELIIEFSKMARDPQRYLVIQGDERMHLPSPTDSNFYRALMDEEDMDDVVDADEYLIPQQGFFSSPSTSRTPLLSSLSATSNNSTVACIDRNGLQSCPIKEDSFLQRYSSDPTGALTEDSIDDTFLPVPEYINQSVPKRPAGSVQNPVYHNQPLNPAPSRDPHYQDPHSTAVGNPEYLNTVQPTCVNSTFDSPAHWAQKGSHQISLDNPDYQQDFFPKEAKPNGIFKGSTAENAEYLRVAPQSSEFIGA

SMILES | LTC (EGFR^L858R+T790M+C797S) protein degradation [1] | AUC compared to the corresponding compounds [2, 4] | half-life [2] | AUC(0-t) [2] | DTC (EGFR^del19+T790M+C797S) protein degradation [3] | AUC compared to the corresponding compounds [2, 5]
COc1cc(N2CCC(N3CCN(CCNc4cccc5c4C(=O)N(C4CCC(=O)NC4=O)C5=O)CC3)CC2)c(C)cc1Nc1ncc(Cl)c(Nc2ccccc2N(C)S(C)(=O)=O)n1 (centres unmarked) [Compound 74, N-(2-((5-chloro-2-((4-(4-(4-(2-((2-(2,6-dioxopiperidin-3-yl)-1,3-dioxoisoindolin-4-yl)amino)ethyl)piperazin-1-yl)piperidin-1-yl)-2-methoxy-5-methylphenyl)amino)pyrimidin-4-yl)amino)phenyl)-N-methylmethanesulfonamide] | ++ (Protein degradation > 80%) | significantly improved AUC | 4.44 h | 5520 ng·h/mL | − (Protein degradation < 20%) | 
COc1cc(N2CCN(CC3CCN(C(=O)[C@H](C)Nc4cccc5c4C(=O)N(C4CCC(=O)NC4=O)C5=O)CC3)CC2)c(C)cc1Nc1ncc(Cl)c(Nc2ccccc2N(C)S(C)(=O)=O)n1 (stereo partly drawn) [Compound 75, N-(2-((5-chloro-2-((4-(4-((1-((2-(2,6-dioxopiperidin-3-yl)-1,3-dioxoisoindolin-4-yl)-L-alanyl)piperidin-4-yl)methyl)piperazin-1-yl)-2-methoxy-5-methylphenyl)amino)pyrimidin-4-yl)amino)phenyl)-N-methylmethanesulfonamide] | ++ (Protein degradation > 80%) |  | 2.82 h | 2040 ng·h/mL | ++ (Protein degradation > 80%) | significantly improved AUC
COc1cc(N2CCC(N3CCN(CC4CCN(c5ccc6c(c5)C(=O)N(C5CCC(=O)NC5=O)C6=O)CC4)CC3)CC2)c(C)cc1Nc1ncc(Cl)c(Nc2ccccc2N(C)S(C)(=O)=O)n1 (centres unmarked) [Compound 76, N-(2-((5-chloro-2-((4-(4-(4-((1-(2-(2,6-dioxopiperidin-3-yl)-1,3-dioxoisoindolin-5-yl)piperidin-4-yl)methyl)piperazin-1-yl)piperidin-1-yl)-2-methoxy-5-methylphenyl)amino)pyrimidin-4-yl)amino)phenyl)-N-methylmethanesulfonamide] | ++ (Protein degradation > 80%) | significantly improved AUC | 6.66 h | 5240 ng·h/mL | + (Protein degradation 20~80%) | 
COc1cc(N2CCC(N3CCN(CCC4CCN(c5ccc6c(c5)C(=O)N(C5CCC(=O)NC5=O)C6=O)CC4)CC3)CC2)c(C)cc1Nc1ncc(Cl)c(Nc2ccccc2N(C)S(C)(=O)=O)n1 (centres unmarked) [Compound 77, N-(2-((5-chloro-2-((4-(4-(4-(2-(1-(2-(2,6-dioxopiperidin-3-yl)-1,3-dioxoisoindolin-5-yl)piperidin-4-yl)ethyl)piperazin-1-yl)piperidin-1-yl)-2-methoxy5-methylphenyl)amino)pyrimidin-4-yl)amino)phenyl)-N-methylmethanesulfonamide] | ++ (Protein degradation > 80%) | significantly improved AUC | 2.96 h | 1170 ng·h/mL | + (Protein degradation 20~80%) | 
COc1cc(N2CCC(CN3CCN(C(=O)[C@H](C)Nc4cccc5c4C(=O)N(C4CCC(=O)NC4=O)C5=O)CC3)CC2)c(C)cc1Nc1ncc(Cl)c(Nc2ccccc2N(C)S(C)(=O)=O)n1 (stereo partly drawn) [Compound 78, N-(2-((5-chloro-2-((4-(4-((4-((2-(2,6-dioxopiperidin-3-yl)-1,3-dioxoisoindolin-4-yl)-L-alanyl)piperazin-1-yl)methyl)piperidin-1-yl)-2-methoxy-5-methylphenyl)amino)pyrimidin-4-yl)amino)phenyl)-N-methylmethanesulfonamide] | ++ (Protein degradation > 80%) |  | 3.75 h | 5740 ng·h/mL | ++ (Protein degradation > 80%) | significantly improved AUC
COc1cc(N2CCC(CN3CCN(c4ccc5c(c4)C(=O)N(C4CCC(=O)NC4=O)C5=O)CC3)CC2)c(C)cc1Nc1ncc(Cl)c(Nc2ccccc2N(C)S(C)(=O)=O)n1 (centres unmarked) [Compound 79, N-(2-((5-chloro-2-((4-(4-((4-(2-(2,6-dioxopiperidin-3-yl)-1,3-dioxoisoindolin-5-yl)piperazin-1-yl)methyl)piperidin-1-yl)-2-methoxy-5-methylphenyl)amino)pyrimidin-4-yl)amino)phenyl)-N-methylmethanesulfonamide] | + (Protein degradation 20~80%) |  | 3.47 h | 1130 ng·h/mL | − (Protein degradation < 20%) | 
COc1cc(N2CCN(CC3CCN(C(=O)CNc4cccc5c4C(=O)N(C4CCC(=O)NC4=O)C5=O)CC3)CC2)c(C)cc1Nc1ncc(Cl)c(Nc2ccccc2N(C)S(C)(=O)=O)n1 (centres unmarked) [Compound 80, N-(2-((5-chloro-2-((4-(4-((1-((2-(2,6-dioxopiperidin-3-yl)-1,3-dioxoisoindolin-4-yl)glycyl)piperidin-4-yl)methyl)piperazin-1-yl)-2-methoxy-5-methylphenyl)amino)pyrimidin-4-yl)amino)phenyl)-N-methylmethanesulfonamide] | ++ (Protein degradation > 80%) | significantly improved AUC | 3.55 h | 1040 ng·h/mL | ++ (Protein degradation > 80%) | 
COc1cc(N2CCN(CC3CCN(C(=O)COc4cccc5c4C(=O)N(C4CCC(=O)NC4=O)C5=O)CC3)CC2)c(C)cc1Nc1ncc(Cl)c(Nc2ccccc2N(C)S(C)(=O)=O)n1 (centres unmarked) [Compound 81, N-(2-((5-chloro-2-((4-(4-((1-(2-((2-(2,6-dioxopiperidin-3-yl)-1,3-dioxoisoindolin-4-yl)oxy)acetyl)piperidin-4-yl)methyl)piperazin-1-yl)-2-methoxy-5-methylphenyl)amino)pyrimidin-4-yl)amino)phenyl)-N-methylmethanesulfonamide] | ++ (Protein degradation > 80%) | significantly improved AUC | 4.73 h | 502 ng·h/mL | ++ (Protein degradation > 80%) | 
COc1cc(N2CCN(CC3CCN(C(=O)[C@H](C)Oc4cccc5c4C(=O)N(C4CCC(=O)NC4=O)C5=O)CC3)CC2)c(C)cc1Nc1ncc(Cl)c(Nc2ccccc2N(C)S(C)(=O)=O)n1 (stereo partly drawn) [Compound 82, N-(2-((5-chloro-2-((4-(4-((1-((2S)-2-((2-(2,6-dioxopiperidin-3-yl)-1,3-dioxoisoindolin-4-yl)oxy)propanoyl)piperidin-4-yl)methyl)piperazin-1-yl)-2-methoxy-5-methylphenyl)amino)pyrimidin-4-yl)amino)phenyl)-N-methylmethanesulfonamide] | ++ (Protein degradation > 80%) |  | 6.03 h | 366 ng·h/mL | ++ (Protein degradation > 80%) | significantly improved AUC

From US20230322723A1, “COMPOUNDS FOR SUPPRESSING EGFR MUTANT CANCER AND PHARMACEUTICAL USE THEREOF” (J2H BIOTECH INC., priority 2020, published 2023)
